Test results: patent US10806121B2, “Animal litter containing a pheromone composition” (Sergeant's Pet Care Products, LLC, priority 2014, dated 2020)

Tested on: cats
Test: Study 1: cat litter preference, pheromone-treated litter versus control litter
Format: in vivo
Conditions: for percentage preference (% of the cats using the treated litter): litter treated at 10 μg/3-lb (7.3 μg/kg), choice against control litter over 48 hours, 50% = no effect; for Litter Type Use, g, TRT (weights of litter after 2 days): treated litter box, 10 μg/3-lb, SE = 0.023; for Relative Difference, % / Significantly Different: treated versus control litter weight after 2 days; for effect on cats' litter preference: treated versus control litter, 48 hours
Description: In Study 1, four different treatments were tested: Androstenone (ANDRO); cat urinary pheromone, 3-mercapto-3-methyl-1-butanol (CAT); rabbit pheromone, 2-methylbut-2-enal (RP); and both the cat urinary pheromone and the rabbit pheromone (CAT+RP). 40 individual cats were used in this study to assess their preference to or aversion from a control litter versus a litter under one of the four treatments. Each treatment was tested with 10 cats. Litter was divided into 3 lb aliquots, and each aliquot was either used as a control or was mixed with a pheromone (or a pheromone combination) to be tested at a level of 10 μg/3-lb (or 7.3 μg/kg).
On Day 0, each cat was placed into an assigned chamber randomly placed with two litter boxes, one control and one treated. Each of the two litter boxes was weighed and the weight was recorded. The camera in the chamber was properly aligned to give a full view of the chamber and started taping on Day 0. On Day 1, 24 hours after the start of taping on Day 0, each of the two litter boxes in the chamber was weighed and the weight was recorded. On Day 2, 48 hours after the start of taping on Day 0, each of the two litter boxes in the chamber was again weighed. Litter can be disposed of after weighing on Day 2, and the camera was then turned off. The weights of the litter boxes over the 48 hours were used to determine whether the litter was used or not, and at which preference level.
The data were expressed as both a percentage preference (% of the cats using the treated litter in each treatment group) and by the weight of the litter (the litter gets heavier as it is soiled). It was expected that if the added pheromone had no effect on litter preference, 50% of the cats would use the treated litter and 50% would use the control litter. […] Further, the weight difference between a control litter or litter under treatment was used to show the relative strength of the effect of a particular treatment on cat's litter use behavior. During the study, some cats (N=3; 2 in CAT+RP and 1 in RP) spilled their litter and their data were unreliable and were not included.

Compound | percentage preference (% of the cats using the treated litter) | Litter Type Use, g, TRT (weights of litter after 2 days) | Relative Difference, % | Significantly Different | effect on cats' litter preference
C[C@]12CCC(=O)C[C@@H]1CC[C@@H]1[C@@H]2CC[C@]2(C)C=CC[C@@H]12 [ANDRO, Androstenone] | 50% | 0.571 g | −11% | No | did not provide any attraction
CC(C)(S)CCO [CAT, 3-mercapto-3-methyl-1-butanol] | 40% | 0.562 g | −43% | Yes | slight aversion
